Test results reported in patent publication US20100204142A1, “USE OF THE PEPTIDE PHPFHLFVY (RENIN INHIBITOR) AS A THERAPEUTIC AGENT” (priority 2007, published 2010).
Where no end group is shown, it is not given here.

Key:
[1] = test system: HIV-1 infected CEM-SS cells (strain HIV-1IIIB); experiment: HIV-1 antiviral assay (CPE reduction, MTS); format: cell-based; conditions: peptide 10 micrograms per ml, 6 days post-infection
[2] = test system: CEM-SS cells; experiment: Cytotoxicity in CEM-SS cells (MTS); conditions: CEM-SS cells plus peptide only, peptide 10 micrograms per ml
[3] = test system: HepG2-2.2.15 cells; experiment: Cytotoxicity in HepG2-2.2.15 cells (dye uptake); format: cell-based; conditions: dye uptake assay, % cell control
Experimental: HepG2-2.2.15 cells were plated in 96-well microtiter plates. After 16-24 hours the confluent monolayer of HepG2-2.2.15 cells was washed and the medium was replaced with complete medium containing test peptide—10 micrograms per ml—in duplicate. Lamivudine (3TC) was used as the positive control, while media alone was added to the cells as a negative control (virus control). Three days later the culture medium was replaced with fresh medium containing the peptide. Six days following the initial administration of the peptide, the cell culture supernatants was collected, treated with pronase and DNAse and then used in a real-time quantitative TaqMan PCR assay. The PCR-amplified HBV DNA was detected in real-time by monitoring increases in fluorescence signals that result from the exonucleolytic degradation of a quenched fluorescence probe molecule that hybridizes to the amplified HBV DNA. For each PCR amplification, a standard curve was simultaneously generated using dilutions of purified HBV DNA. Antiviral activity was calculated from the reduction in HBV DNA levels (% virus control). A novel dye uptake assay was then employed to measure cell viability, which is used to calculate toxicity (% cell control).

[4] = in vitro; format: cell-based; conditions: human, MRC-5 cells
Experimental: The following day, peptide was added and tested in duplicates.

[5] = test system: Streptococcus pneumoniae; format: cell-based; conditions: 5 micrograms per ml
[6] = test system: MRSA; conditions: 5 micrograms per ml
[7] = test system: Pseudomonas aeruginosa; format: cell-based; conditions: 5 micrograms per ml

Molecule: Cc1cn([C@H]2C[C@H](N=[N+]=[N-])[C@@H](CO)O2)c(=O)[nH]c1=O [AZT]
- % CPE reduction in HIV-1 infected CEM-SS cells [1]: 99%
- % Cell viability [2]: 97%

Molecule: Nc1ccn([C@@H]2CS[C@H](CO)O2)c(=O)n1 [3TC, Lamivudine, reference compound]
- % Cell viability [3]: 95.8%

Molecule: PHPFHLFVY-OH [Renin inhibitor]
- viability at 144 h [4]: 100%
- % inhibition [5]: 0.0%
- % inhibition [6]: 0.0%
- % inhibition [7]: 0.0%
